Results taken from patent publication US11963960B2 (Flash Therapeutics, LLC, priority 2020, dated 2024).

Molecular target: N-terminally GST-tagged HCK (75-526) (Homo sapiens (Human), UniProt P08631)
Assay: HCK Kinase Assay (ProFluor Src-Family Kinase Assay)
Format: biochemical
Conditions: HCK inhibitory activity, 50 μM ATP; read-out: HCK Activity
Outline: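 ProFluor Src-family format: after the kinase reaction, protease solution was added for 60 min at room temperature (22-25° C), then stabilizer.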

N-terminally GST-tagged HCK (75-526), sequence (P08631 75-526): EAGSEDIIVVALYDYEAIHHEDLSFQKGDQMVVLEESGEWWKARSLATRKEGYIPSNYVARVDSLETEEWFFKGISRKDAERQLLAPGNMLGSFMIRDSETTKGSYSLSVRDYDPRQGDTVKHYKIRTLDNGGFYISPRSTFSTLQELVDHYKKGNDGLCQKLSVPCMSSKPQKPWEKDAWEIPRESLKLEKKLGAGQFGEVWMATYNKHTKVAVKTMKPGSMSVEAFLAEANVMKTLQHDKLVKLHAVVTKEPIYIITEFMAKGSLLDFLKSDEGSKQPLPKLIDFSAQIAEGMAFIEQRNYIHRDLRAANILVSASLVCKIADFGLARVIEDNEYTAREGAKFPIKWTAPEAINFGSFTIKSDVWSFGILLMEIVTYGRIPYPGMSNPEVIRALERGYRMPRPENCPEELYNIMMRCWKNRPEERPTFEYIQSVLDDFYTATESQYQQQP

Row | Structure (SMILES) | IC50 [nM]
1 | Nc1ncnc2c1c(-c1ccc(Oc3ccccc3)cc1)cn2[C@H]1CC[C@@H](N2CCS(=O)(=O)CC2)CC1 [Example 66, 4-((cis)-4-(4-amino-5-(4-phenoxyphenyl)-7H-pyrrolo[2,3-d]pyrimidin-7-yl)cyclohexyl)thiomorpholine 1,1-dioxide] | 50 to 250
2 | CP1(=O)CCN([C@H]2CC[C@H](n3cc(-c4ccc(Oc5ccccc5)cc4)c4c(N)ncnc43)CC2)CC1 [Example 67, 1-((trans)-4-(4-amino-5-(4-phenoxyphenyl)-7H-pyrrolo[2,3-d]pyrimidin-7-yl)cyclohexyl)-4-methyl-1,4-azaphosphinane 4-oxide] | 50 to 250
3 | Nc1ncnc2c1c(-c1ccc(Oc3ccccc3)cc1)cn2[C@H]1CC[C@H](N2CCC(S(N)(=O)=O)CC2)CC1 [Example 69, 1-((trans)-4-(4-amino-5-(4-phenoxyphenyl)-7H-pyrrolo[2,3-d]pyrimidin-7-yl)cyclohexyl)piperidine-4-sulfonamide] | 50 to 250
4 | Nc1ncnc2c1c(-c1ccc(Oc3ccccc3)cc1)cn2[C@H]1CC[C@@H](N2CCC(S(N)(=O)=O)CC2)CC1 [Example 70, 1-((cis)-4-(4-amino-5-(4-phenoxyphenyl)-7H-pyrrolo[2,3-d]pyrimidin-7-yl)cyclohexyl)piperidine-4-sulfonamide] | 50 to 250
5 | CN(C)[C@@H]1CN([C@H]2CC[C@@H](n3cc(-c4ccc(Oc5ccccc5)cc4F)c4c(N)ncnc43)CC2)C[C@H]1O [Example 74, (3R,4R)-1-((cis)-4-(4-amino-5-(2-fluoro-4-phenoxyphenyl)-7H-pyrrolo[2,3-d]pyrimidin-7-yl)cyclohexyl)-4-(dimethylamino)pyrrolidin-3-ol] | 50 to 250
6 | Nc1ncnc2c1c(-c1ccc(Oc3ccccc3)cc1)cn2[C@H]1CC[C@H](N2C[C@@H](O)[C@@H](O)C2)CC1 [Example 75, (3R,4S)-1-((trans)-4-(4-amino-5-(4-phenoxyphenyl)-7H-pyrrolo[2,3-d]pyrimidin-7-yl)cyclohexyl)pyrrolidine-3,4-diol] | 50 to 250
7 | Nc1ncnc2c1c(-c1ccc(Oc3ccccc3)cc1)cn2[C@H]1CC[C@@H](N2C[C@@H](O)[C@@H](O)C2)CC1 [Example 76, (3R,4S)-1-((cis)-4-(4-amino-5-(4-phenoxyphenyl)-7H-pyrrolo[2,3-d]pyrimidin-7-yl)cyclohexyl)pyrrolidine-3,4-diol] | 50 to 250
8 | Nc1ncnc2c1c(-c1ccc(Oc3ccccc3)cc1)cn2[C@H]1CC[C@@H](N2CC(N)C2)CC1 [Example 78, 7-((cis)-4-(3-aminoazetidin-1-yl)cyclohexyl)-5-(4-phenoxyphenyl)-7H-pyrrolo[2,3-d]pyrimidin-4-amine] | 250 to 10000
9 | CN1CC2(C1)CN([C@H]1CC[C@H](n3cc(-c4ccc(Oc5ccccc5)cc4)c4c(N)ncnc43)CC1)C2 [Example 79, 7-((trans)-4-(6-methyl-2,6-diazaspiro[3.3]heptan-2-yl)cyclohexyl)-5-(4-phenoxyphenyl)-7H-pyrrolo[2,3-d]pyrimidin-4-amine] | 50 to 250
10 | CN1CC2(C1)CN([C@H]1CC[C@@H](n3cc(-c4ccc(Oc5ccccc5)cc4)c4c(N)ncnc43)CC1)C2 [Example 80, 7-((cis)-4-(6-methyl-2,6-diazaspiro[3.3]heptan-2-yl)cyclohexyl)-5-(4-phenoxyphenyl)-7H-pyrrolo[2,3-d]pyrimidin-4-amine] | 250 to 10000
11 | Nc1ncnc2c1c(-c1ccc(Oc3ccccc3)cc1)cn2[C@H]1CC[C@H](NC2CNC2)CC1 [Example 83, 7-((trans)-4-(azetidin-3-ylamino)cyclohexyl)-5-(4-phenoxyphenyl)-7H-pyrrolo[2,3-d]pyrimidin-4-amine] | 50 to 250
12 | Nc1ncnc2c1c(-c1ccc(Oc3ccccc3)cc1)cn2[C@H]1CC[C@@H](NC2CNC2)CC1 [Example 84, 7-((cis)-4-(azetidin-3-ylamino)cyclohexyl)-5-(4-phenoxyphenyl)-7H-pyrrolo[2,3-d]pyrimidin-4-amine] | 50 to 250
13 | CN1CCN([C@H]2CC[C@H](n3c(Br)c(-c4ccc(Oc5ccccc5)cc4)c4c(N)ncnc43)CC2)CC1 [Example 86, 6-Bromo-7-((trans)-4-(4-methylpiperazin-1-yl)cyclohexyl)-5-(4-phenoxyphenyl)-7H-pyrrolo[2,3-d]pyrimidin-4-amine] | 50 to 250

More lines, now with the values ahead:

Row | IC50 [nM] | Structure (SMILES)
14 | < 50 | CP1(=O)CCN([C@H]2CC[C@@H](n3cc(-c4ccc(Oc5ccccc5)cc4)c4c(N)ncnc43)CC2)CC1 [Example 68, 1-((cis)-4-(4-amino-5-(4-phenoxyphenyl)-7H-pyrrolo[2,3-d]pyrimidin-7-yl)cyclohexyl)-4-methyl-1,4-azaphosphinane 4-oxide]
15 | < 50 | CN(C)[C@H]1CN([C@H]2CC[C@H](n3cc(-c4ccc(Oc5ccccc5)cc4)c4c(N)ncnc43)CC2)C[C@H]1O [Example 71, (3R,4S)-1-((trans)-4-(4-amino-5-(4-phenoxyphenyl)-7H-pyrrolo[2,3-d]pyrimidin-7-yl)cyclohexyl)-4-(dimethylamino)pyrrolidin-3-ol]
16 | < 50 | CN(C)[C@H]1CN([C@H]2CC[C@@H](n3cc(-c4ccc(Oc5ccccc5)cc4)c4c(N)ncnc43)CC2)C[C@H]1O [Example 72, (3R,4S)-1-((cis)-4-(4-amino-5-(4-phenoxyphenyl)-7H-pyrrolo[2,3-d]pyrimidin-7-yl)cyclohexyl)-4-(dimethylamino)pyrrolidin-3-ol]
17 | < 50 | CN(C)[C@@H]1CN([C@H]2CC[C@H](n3cc(-c4ccc(Oc5ccccc5)cc4F)c4c(N)ncnc43)CC2)C[C@H]1O [Example 73, (3R,4R)-1-((trans)-4-(4-amino-5-(2-fluoro-4-phenoxyphenyl)-7H-pyrrolo[2,3-d]pyrimidin-7-yl)cyclohexyl)-4-(dimethylamino)pyrrolidin-3-ol]
18 | < 50 | Nc1ncnc2c1c(-c1ccc(Oc3ccccc3)cc1)cn2[C@H]1CC[C@H](N2CC(N)C2)CC1 [Example 77, 7-((trans)-4-(3-aminoazetidin-1-yl)cyclohexyl)-5-(4-phenoxyphenyl)-7H-pyrrolo[2,3-d]pyrimidin-4-amine]
19 | < 50 | Nc1ncn([C@H]2CC[C@H](n3cc(-c4ccc(Oc5ccccc5)cc4)c4c(N)ncnc43)CC2)n1 [Example 81, 7-((trans)-4-(3-amino-1H-1,2,4-triazol-1-yl)cyclohexyl)-5-(4-phenoxyphenyl)-7H-pyrrolo [2,3-d]pyrimidin-4-amine]
20 | < 50 | Nc1ncn([C@H]2CC[C@@H](n3cc(-c4ccc(Oc5ccccc5)cc4)c4c(N)ncnc43)CC2)n1 [Example 82, 7-((cis)-4-(3-amino-1H-1,2,4-triazol-1-yl)cyclohexyl)-5-(4-phenoxyphenyl)-7H-pyrrolo[2,3-d]pyrimidin-4-amine]
21 | < 50 | Nc1ncnc2c1c(-c1ccc(Oc3ccccc3)cc1)cn2[C@H]1CC[C@H](NCc2n[nH]c(=O)[nH]2)CC1 [Example 85, 3-((((trans)-4-(4-amino-5-(4-phenoxyphenyl)-7H-pyrrolo[2,3-d]pyrimidin-7-yl)cyclohexyl)amino)methyl)-1H-1,2,4-triazol-5(4H)-one]
22 | < 50 | CN1CCN([C@H]2CC[C@H](n3cc(-c4ccc(Oc5ccccc5)cc4)c4c(O)ncnc43)CC2)CC1 [Example 87, 7-((trans)-4-(4-Methylpiperazin-1-yl)cyclohexyl)-5-(4-phenoxyphenyl)-7H-pyrrolo[2,3-d]pyrimidin-4-ol]
